Measurements from patent US20220380371A1, “MLL1 INHIBITORS AND ANTI-CANCER AGENTS” (NOVARTIS AG, priority 2019, published 2022).

Columns and labels:
[1] = molecular target: wild type MLL1 five-member complex (MLL1-5C) (Homo sapiens, UniProt Q03164); test: MLL1 Flashplate Assay; format: biochemical; settings: read-out: MLL1 flash plate
Procedure: MLL1 Flashplate Assay To assess the compound potency in MLL1 Flashplate assay, compounds were serially diluted 3-fold in DMSO to obtain a total of twelve concentrations. Then the test compounds at each concentration (250 nL of each) were transferred by Mosquito into Corning #3675 384-well plate. Solutions (15 μL) of 4.2 nM wild type MLL1 five-member complex (MLL1-5C) in the assay buffer (20 mM Tris-HCl, pH 8.0, 0.01% Tween 20, 1 mM DTT, 0.01% BSA) were added to the wells. A 10 μL solution of 2.5 μM of the peptide substrate H3K4me0 (histone H3[1-21]-Biotin) and 1.25 μM ^3H-SAM in the reaction buffer was then added to initiate each reaction. The final components in the reaction solution include 2.5 nM MLL1-5C, 0.5 μM ^3H-SAM, and 1 μM H3K4me0 with varying concentration of the compounds. A positive control consisted of 2.5 nM MLL1-5C, 0.5 μM ^3H-SAM, and 1 μM substrate in the absence of the test compound, and a negative control consisted of 0.5 μM ^3H-SAM, and 1 μM substrate only. Each reaction was incubated at rt for 90 min, then stopped by addition of 5 μL per of quench solution (0.5 mM SAM in assay buffer). 25 μL of each reaction solution was transferred to FlashPlate streptavidin 384-well microplate (PerkinElmer). After at least 1 h incubation at rt, the wells were washed three times with 0.1% Tween-20 in dH2O using the BioTek plate washer. The plates were then read in MicroBeta (PerkinElmer). The radioactive readouts were then normalized based on the values coming from the positive and negative controls to give percent enzyme activities. The data were then fit to a dose response equation using the program Helios to get the IC50 values of the test compounds.

[2] = tested on: MV4-11 cells; test: MV4-11 6-Day Cell Growth CTG (CellTiter-Glo) Assay; format: cell-based; settings: Homo sapiens, MV4-11, 144 h, MV4-11 cell growth CellTiter-Glo, 6 days
How it was run: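 MV4-11 AML cells (RPMI 1640, 10% FBS) seeded at 300 cells/well and exposed for 6 days at 37 °C to a 12-point, 1:3 compound series starting at 50 μM final. Viable cells read by CellTiter-Glo luminescence; percent inhibition versus DMSO-only wells fitted to dose-response curves for IC50.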

[3] = molecular target: wild type MLL1 four-member complex (MLL1-4C) (Homo sapiens, UniProt Q03164); test: MLL1 LC-MS Assay; format: biochemical; settings: read-out: LCMS
How it was run: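 Compound pre-incubated 20 min with MLL1-4C and SAM, then H3[1-21]-biotin (H3K4me0) substrate added; final 30 nM enzyme, 2.5 μM SAM, 10 μM peptide in Tris pH 8.0 with MgCl2, DTT, Tween 20, BSA. After 120 min at rt, TFA-quenched SAH quantified by LC-MS/MS with d4-SAH; IC50 from dose-response fit.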

[4] = tested on: H3K4me3 in MV4-11 cells; test: MV4-11 H3K4me3 Cellular ELISA Assay; format: cell-based; settings: Homo sapiens, MV4-11, 48 h
How it was run: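 MV4-11 cells were treated for 48 h with 12-point 1:3 compound dilutions (from 10 mM stock), then histones were acid-extracted with 0.5M HCl and neutralized. H3K4me3 and total H3 were measured by HRP chemiluminescent ELISA, and inhibition versus DMSO after H3 normalization was curve-fitted for IC50.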

## Nc1ncnc2c1ncn2Cc1c(N2CC[C@](N)(C(=O)N[C@H]3C[C@@H]3c3ccccc3)C2)ccc(F)c1CN1CCOCC1 [Example 51]
[1]
  IC50: < 60 nM
[2]
  IC50: < 2000 nM
[3]
  IC50: < 50 nM
[4]
  IC50: < 1900 nM

## Nc1ncnc2c1ncn2Cc1c(N2CC[C@](N)(C(=O)NC3CC3)C2)ccc(F)c1CN1CC(F)(F)C1 [Example 52]
[1]
  IC50: 60 to 100 nM
[2]
  IC50: < 2000 nM
[3]
  IC50: 50 to 100 nM
[4]
  IC50: < 1900 nM

## Nc1ncnc2c1ncn2Cc1c(N2CC[C@](N)(C(=O)NC3CC3)C2)ccc(C(F)(F)F)c1CN1CCC1 [Example 62]
[1]
  IC50: < 60 nM
[2]
  IC50: < 2000 nM
[3]
  IC50: < 50 nM
[4]
  IC50: < 1900 nM

## Nc1ncnc2c1ncn2Cc1c(N2CC[C@](N)(C(=O)NC3CC3)C2)ccc(F)c1CN1CCOCC1 [Example 65]
[1]
  IC50: > 100 nM
[2]
  IC50: < 2000 nM
[3]
  IC50: < 50 nM
[4]
  IC50: < 1900 nM

## Nc1ncnc2c1ncn2Cc1c(N2CC[C@](N)(C(=O)NC3CC3)C2)ccc(F)c1CN1CCC1 [Example 70]
[1]
  IC50: > 100 nM
[2]
  IC50: < 2000 nM
[3]
  IC50: 50 to 100 nM
[4]
  IC50: < 1900 nM

## Nc1ncnc2c1ncn2Cc1c(-c2cccc(C3CCCCC3)c2)cc(Cl)cc1N1CC[C@](N)(c2nn[nH]n2)C1 [Example 84]
[1]
  IC50: < 60 nM
[2]
  IC50: < 2000 nM
[3]
  IC50: 50 to 100 nM
[4]
  IC50: < 1900 nM

## Nc1ncnc2c1ncn2Cc1c(N2CC[C@](N)(c3nc[nH]n3)C2)ccc(Cl)c1Cl [Example 85]
[1]
  IC50: < 60 nM
[2]
  IC50: < 2000 nM
[3]
  IC50: < 50 nM
[4]
  IC50: < 1900 nM

## Nc1ncnc2c1ncn2Cc1c(N2CC[C@](N)(C(=O)NC3CC3)C2)ccc(Cl)c1COC(F)F [Example 86]
[1]
  IC50: < 60 nM
[2]
  IC50: < 2000 nM
[3]
  IC50: < 50 nM
[4]
  IC50: < 1900 nM

## CN(C)Cc1c(Cl)c(Cl)cc(N2CC[C@](N)(C(=O)NC3CC3)C2)c1Cn1cnc2c(N)ncnc21 [Example 88, (R)-3-amino-1-(2-((6-amino-9H-purin-9-yl)methyl)-4,5-dichloro-3-((dimethylamino)methyl)phenyl)-N-cyclopropylpyrrolidine-3-carboxamide]
[1]
  IC50: < 60 nM
[2]
  IC50: < 2000 nM
[3]
  IC50: < 50 nM
[4]
  IC50: < 1900 nM

## CCc1cc(-c2cccs2)cc(N2CC[C@](N)(C(=O)NC3CC3)C2)c1Cn1cnc2c(N)ncnc21 [Example 93]
[1]
  IC50: < 60 nM
[2]
  IC50: < 2000 nM
[3]
  IC50: < 50 nM
[4]
  IC50: < 1900 nM

## CCc1cc(-c2cnn(C)c2)cc(N2CC[C@](N)(C(=O)NC3CC3)C2)c1Cn1cnc2c(N)ncnc21 [Example 96]
[1]
  IC50: < 60 nM
[2]
  IC50: > 3000 nM
[3]
  IC50: < 50 nM
[4]
  IC50: 1900 to 3000 nM

## CCc1cc(-c2ccccn2)cc(N2CC[C@](N)(C(=O)NC3CC3)C2)c1Cn1cnc2c(N)ncnc21 [Example 99, (R)-3-amino-1-(2-((6-amino-9H-purin-9-yl)methyl)-3-ethyl-5-(pyridin-2-yl)phenyl)-N-cyclopropylpyrrolidine-3-carboxamide]
[1]
  IC50: < 60 nM
[2]
  IC50: < 2000 nM
[3]
  IC50: < 50 nM
[4]
  IC50: < 1900 nM

## CCc1c(C#N)c(Cl)cc(N2CC[C@](N)(C(=O)NC3CC3)C2)c1Cn1cnc2c(N)ncnc21 [Example 101, (R)-3-amino-1-(2-((6-amino-9H-purin-9-yl)methyl)-5-chloro-4-cyano-3-ethylphenyl)-N-cyclopropylpyrrolidine-3-carboxamide]
[1]
  IC50: < 60 nM
[2]
  IC50: 2000 to 3000 nM
[3]
  IC50: < 50 nM
[4]
  IC50: < 1900 nM

## Nc1ncnc2c1ncn2Cc1c(N2CC[C@](N)(C(=O)NC3CC3)C2)cc(Cl)c(F)c1CN1CCOCC1 [Example 102, (R)-3-amino-1-(2-((6-amino-9H-purin-9-yl)methyl)-5-chloro-4-fluoro-3-(morpholinomethyl)phenyl)-N-cyclopropylpyrrolidine-3-carboxamide]
[1]
  IC50: < 60 nM
[2]
  IC50: < 2000 nM
[3]
  IC50: < 50 nM
[4]
  IC50: < 1900 nM
